From the CheMixHub ionic liquid set

Experiment: xn = mol fraction of the nth substance listed
Conditions: 101 kPa

CCCCCCCCCCCCCCCC[n+]1ccccc1.O=C([O-])c1ccccc1O + C[C@H](N)C(=O)O + O
electrical conductivity [S/m]
Conditions | 293.15 K | 298.15 K | 303.15 K | 308.15 K | 313.15 K
x2 = 0.0009002, x1 = 5.4e-07 | 0.00045 | 0.00051 | 0.000575 | 0.000646 | 0.000726
x2 = 0.0009002, x1 = 1.09e-06 | 0.000683 | 0.000777 | 0.000872 | 0.000975 | 0.00108
x2 = 0.0009002, x1 = 1.63e-06 | 0.000904 | 0.00102 | 0.00114 | 0.00127 | 0.00141
x2 = 0.0009002, x1 = 2.17e-06 | 0.00109 | 0.00123 | 0.00139 | 0.00155 | 0.00172
x2 = 0.0009002, x1 = 2.53e-06 | – | – | – | 0.00181 | 0.002
x2 = 0.0009002, x1 = 2.71e-06 | 0.00125 | 0.00144 | 0.00162 | – | –
x2 = 0.0009002, x1 = 3.07e-06 | 0.00137 | 0.00158 | 0.0018 | 0.00202 | 0.00228
x2 = 0.0009002, x1 = 3.62e-06 | 0.00148 | 0.0017 | 0.00195 | 0.00222 | 0.00249
x2 = 0.0009002, x1 = 3.98e-06 | 0.00159 | 0.00182 | 0.00208 | 0.00237 | 0.00267
x2 = 0.0009002, x1 = 4.52e-06 | 0.0017 | 0.00194 | 0.00222 | 0.00253 | 0.00286
x2 = 0.0009002, x1 = 4.88e-06 | 0.00181 | 0.00206 | 0.00235 | 0.00268 | 0.00303
x2 = 0.0009002, x1 = 5.43e-06 | 0.00191 | 0.00218 | 0.00248 | 0.00282 | 0.00319
x2 = 0.0009002, x1 = 5.79e-06 | 0.002 | 0.00228 | 0.0026 | 0.00295 | 0.00334
x2 = 0.0009002, x1 = 6.15e-06 | 0.0021 | 0.00239 | 0.00271 | 0.00308 | 0.00347
x2 = 0.0009002, x1 = 6.51e-06 | 0.00217 | 0.00247 | 0.0028 | 0.00318 | 0.0036
x2 = 0.0009002, x1 = 6.69e-06 | 0.00224 | 0.00255 | 0.00289 | 0.00327 | 0.00369
x2 = 0.001799, x1 = 3.6e-07 | 0.00047 | 0.000542 | 0.000625 | 0.000719 | 0.000829
x2 = 0.001799, x1 = 5.4e-07 | 0.000604 | 0.000697 | 0.000797 | 0.000911 | 0.00103
x2 = 0.001799, x1 = 9.1e-07 | 0.00073 | 0.000837 | 0.000953 | 0.00108 | 0.00123
x2 = 0.001799, x1 = 1.27e-06 | 0.000889 | 0.00102 | 0.00115 | 0.0013 | 0.00146
x2 = 0.001799, x1 = 1.63e-06 | 0.00104 | 0.00119 | 0.00134 | 0.00151 | 0.0017
x2 = 0.001799, x1 = 1.81e-06 | 0.00112 | 0.00128 | 0.00145 | 0.00163 | 0.00183
x2 = 0.001799, x1 = 2e-06 | 0.00121 | 0.00138 | 0.00156 | 0.00175 | 0.00196
x2 = 0.001799, x1 = 2.18e-06 | 0.00127 | 0.00145 | 0.00165 | 0.00186 | 0.00208
x2 = 0.001799, x1 = 2.36e-06 | – | – | 0.00177 | 0.00198 | 0.00222
x2 = 0.001799, x1 = 2.54e-06 | 0.00134 | 0.00155 | – | – | –
x2 = 0.001799, x1 = 2.72e-06 | 0.00142 | 0.00164 | 0.00188 | 0.00212 | 0.0024
x2 = 0.001799, x1 = 3.09e-06 | 0.00151 | 0.00174 | 0.002 | 0.00229 | 0.0026
x2 = 0.001799, x1 = 3.63e-06 | 0.00161 | 0.00186 | 0.00213 | 0.00244 | 0.00276
x2 = 0.001799, x1 = 3.99e-06 | 0.00173 | 0.00198 | 0.00227 | 0.0026 | 0.00296
x2 = 0.001799, x1 = 4.54e-06 | 0.00183 | 0.0021 | 0.0024 | 0.00275 | 0.00312
x2 = 0.001799, x1 = 4.9e-06 | 0.00192 | 0.0022 | 0.00251 | 0.00287 | 0.00326
